Measured values from patent US10174016B2 (BAYER AKTIENGESELLSCHAFT, priority 2014, dated 2019).
Like-named read-outs stand apart in the source and are kept apart here.

Experiments:
human P2X3 receptor = human P2X3 receptor (Homo sapiens (Human), UniProt P56373); assay: Intracellular calcium measurement (FLIPR, Fluo-4) of antagonist activity at human P2X3 receptors; format: cell-based
How it was run: (§1)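 Cells expressing human P2X3 or P2X2/3, loaded with Fluo-4, preincubated 30 min at 37° C. with compound (1% DMSO final), then challenged with α,β-Me-ATP at its EC80. Peak FLIPR fluorescence over 90 sec gave % response; IC50, maximal inhibition and Hill slope from triplicates.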

human P2X2/3 receptor = human P2X2/3 receptor (Homo sapiens (Human), UniProt P56373+Q9UBL9); assay: Intracellular calcium measurement (FLIPR, Fluo-4) of antagonist activity at human P2X2/3 receptors; format: cell-based; settings: human P2X2/3, FLIPR calcium assay, agonist α,β-Me-ATP; read-out: hP2X2/3 IC50
How it was run: as §1

[1] = Bidirectional Caco-2 cell permeability assay; format: in vitro ADME; settings: human
Method: Bidirectional Caco-2 Cell Permeability Assay
Caco-2 cells (purchased from DSMZ Braunschweig, Germany) were seeded at a density of 4.5×10^4 cell per well on 24 well insert plates, 0.4 μm pore size, and grown for 15 days in Dulbecco's modified Eagle medium supplemented with 10% fetal bovine serum, 1% GlutaMAX (100×, purchased from GIBCO), 100 U/ml penicillin, 100 μg/ml streptomycin (purchased from GIBCO) and 1% non-essential amino acids (100×). Cells were maintained at 37° C. in a humidified 5% CO2 atmosphere. Medium was changed every 2-3 days. […] Test compounds were dissolved in DMSO and added to the donor chamber representing either the apical or basolateral compartment in a final concentration of 2 μM. Before and after 2 h incubation at 37° C. samples were taken from both compartments (donor and receiver chamber). Analysis of compound concentrations was done after precipitation with methanol. Analysis was performed by high-pressure liquid chromatography and a tandem mass spectrometric detector using an Agilent 1200 liquid chromatography system and an AB Sciex API4000 triple-quadrupole mass spectrometer applying the parameters, which were optimized to achieve maximum signal intensity of the corresponding test compound. Permeability (Papp) was calculated in the apical to basolateral (A→B) and basolateral to apical (B→A) directions. […] The efflux ratio basolateral (B) to apical (A) was calculated by dividing the Papp B-A by the Papp A-B.
The bidirectional Caco-2 cell permeability assay is a well-established method for predicting the in vivo absorption of drugs across the gut wall by measuring the rate of transport of a compound across the Caco-2 monolayer. Since differentiated Caco-2 cells express functional efflux transport proteins like P-gp, they are also used for identification of compounds with efflux liabilities. Intestinal efflux can decrease systemic plasma concentrations of an orally dosed compound by affecting intestinal absorption of a compound.

[2] = In vitro metabolic stability in liver microsomes (calculation of CL and Fmax); format: in vitro ADME, human; settings: 1 μM, 0.5 mg/mL protein, maximal oral bioavailability calculated from half-life
Method: In Vitro Metabolic Stability Assays Determination of in vitro metabolic stability in microsomes (including calculation of hepatic in vivo blood clearance (CL) and of maximal oral bioavailability (Fmax))
The metabolic assay was started shortly afterwards by adding the test compound to the incubation at a final volume of 1 mL. Organic solvent in the incubations was limited to […] dimethylsulfoxide (DMSO) and ≤1% acetonitrile. […] Samples were frozen at −20° C. overnight, subsequently centrifuged for 15 minutes at 3000 rpm and the supernatant was analyzed with an Agilent 1200 HPLC-system with LCMS/MS detection.
The half-life of a test compound was determined from the concentration-time plot. From the half-life (kel: slope of concentration-time plot; half-life=ln 2/kel) the intrinsic clearances were calculated. Together with the additional parameters liver blood flow, specific liver weight and microsomal protein content the hepatic in vivo blood clearance (CL) and the maximal oral bioavailability (Fmax) were calculated for the different species.
(§2) Metabolic instability is often the main clearance mechanism of xenobiotica leading to a high CL and low bioavailability which may eventually result in a short half-life and a low exposure after oral administration. Thus, reducing the susceptibility of metabolic degradation usually leads to a more favourable pharmacokinetic profile. When using liver microsomes as incubation matrix main phase I metabolic reactions, typically oxidoreductive reactions by cytochrome P450 enzymes and flavin mono-oxygenases (FMO) and hydrolytic reactions by esterases/amidases/epoxidhydrolases, are described. When the incubation of the test compound is performed in a hepatocyte matrix all potential hepatic metabolic processes (phase I and phase II) are covered.

rat hepatocytes = assay: In vitro metabolic stability in rat hepatocytes; format: in vitro ADME, Han Wistar rats; settings: 1 μM, 1.0×10^6 cells/mL, maximal oral bioavailability calculated from half-life
Method: Determination of in vitro metabolic stability in rat hepatocytes (including calculation of hepatic in vivo blood clearance (CL))
Hepatocytes from Han Wistar rats were isolated via a 2-step perfusion method. After perfusion, the liver was carefully removed from the rat: the liver capsule was opened and the hepatocytes were gently shaken out into a Petri dish with ice-cold Williams' medium E (WME). The resulting cell suspension was filtered through sterile gaze in 50 mL falcon tubes and centrifuged at 50×g for 3 min at room temperature. The cell pellet was resuspended in 30 mL WME and centrifuged through a Percoll® gradient for 2 times at 100×g. The hepatocytes were washed again with WME and resuspended in medium containing 5% FCS. Cell viability was determined by trypan blue exclusion.
The test compound was added to a final concentration of 1 μM. […] Samples were frozen at −20° C. overnight, subsequently centrifuged for 15 minutes at 3000 rpm and the supernatant was analyzed with an Agilent 1200 HPLC-system with LCMS/MS detection.
The half-life of a test compound was determined from the concentration-time plot. From the half-life (kel: slope of concentration-time plot; half-life=ln 2/kel) the intrinsic clearances were calculated. Together with the additional parameters liver blood flow, amount of liver cells in vivo and in vitro.
as §2

[3] = tested on: CFA-induced mechanical hyperalgesia; assay: Rat CFA in vivo model (mechanical hyperalgesia, paw withdrawal threshold); set-up: species or system Male Sprague Dawley rats; settings: dosed 24 hours after CFA injection
Method: Rat CFA In Vivo Model Male Sprague Dawley rats were used. Mechanical hyperalgesia was induced by injecting 25 μl of Complete Freund's Adjuvant (CFA) into the plantar surface of one hind paw. Mechanical hyperalgesia was measured using the Pressure Application Measurement apparatus (Ugo Basile, Gemonio, Italy). Briefly, a linearly increasing pressure was applied to an area of ˜50 mm2 of the plantar side of the hind paw until a behavioural response (paw withdrawal) was observed or until the pressure reached 1000 gf. The pressure at which the behavioural response occurred was recorded as the “Paw Withdrawal Threshold” (PWT). Both CFA-injected and contralateral PWTs were determined for each rat, in each treatment group and at each time point of the studies. […] Compounds were dosed 24 hours after CFA injection. Data were expressed as the mean PWT for each treatment group and at each time point. Data were analysed by performing a repeated measures two way ANOVA (time×treatment). Planned comparison of means (each versus vehicle) was performed by using a Dunnett's post hoc test, provided that a main effect was detected. […] More preferred examples of the present invention show rat CFA in vivo efficacy in the ‘Paw withdrawal threshold 6 hours post drug’ measure when dosed at 3 mg/kg p.o.

[4] = tested on: taste sensation via the tongue; settings: clinical PhII trials, attributed to blockade of P2X2/3 channels; cited from earlier work
[5] = Human liver cytosol stability assay; format: in vitro ADME; settings: human liver cytosol 1 mg/mL, 1 or 10 μM, 37° C.
Method: Human Liver Cytosol Stability Assay
Method description: Human liver cytosol (pooled, >30 male and female donors) was incubated with individual test compounds in order to compare the extent of depletion of test compound and formation of the respective oxidised metabolite. […] An incubation volume of 1000 μL was used. The test compound was added from a stock solution in acetonitrile at 1 or 10 μM concentration in the incubation. Incubations were performed at 37° C. Reactions were stopped at 0 h and 4 h after incubation by addition of 100 μL acetonitrile to 250 μL of incubation mixture. Precipitated proteins were removed by centrifugation at approximately 3000 rpm. The supernatants were stored at approximately −20° C. until they were analysed. […]
Data analysis: The depletion of the test compound and formation of the corresponding metabolites were determined by decrease or increase of the corresponding peak area in the chromatogram after UV detection at approximately 300 nm 4 h after incubation compared to that at 0 h after incubation. […]

[6] = human P2X3, FLIPR calcium assay, agonist α,β-Me-ATP, read-out: hP2X3 IC50
[7] = read-out: human P2X3 receptor IC50

human P2X2/3 receptor, sequence (P56373 whole entry): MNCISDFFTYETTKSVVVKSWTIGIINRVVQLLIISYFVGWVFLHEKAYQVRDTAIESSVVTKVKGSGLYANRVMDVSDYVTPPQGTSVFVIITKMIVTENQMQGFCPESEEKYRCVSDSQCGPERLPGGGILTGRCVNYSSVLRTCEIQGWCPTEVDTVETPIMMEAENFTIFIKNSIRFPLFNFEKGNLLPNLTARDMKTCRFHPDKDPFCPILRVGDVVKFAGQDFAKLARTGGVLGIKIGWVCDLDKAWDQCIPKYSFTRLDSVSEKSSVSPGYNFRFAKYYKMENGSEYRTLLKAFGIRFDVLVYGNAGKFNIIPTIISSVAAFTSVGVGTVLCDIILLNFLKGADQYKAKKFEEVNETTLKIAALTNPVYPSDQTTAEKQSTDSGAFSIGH
human P2X2/3 receptor, sequence (Q9UBL9 whole entry): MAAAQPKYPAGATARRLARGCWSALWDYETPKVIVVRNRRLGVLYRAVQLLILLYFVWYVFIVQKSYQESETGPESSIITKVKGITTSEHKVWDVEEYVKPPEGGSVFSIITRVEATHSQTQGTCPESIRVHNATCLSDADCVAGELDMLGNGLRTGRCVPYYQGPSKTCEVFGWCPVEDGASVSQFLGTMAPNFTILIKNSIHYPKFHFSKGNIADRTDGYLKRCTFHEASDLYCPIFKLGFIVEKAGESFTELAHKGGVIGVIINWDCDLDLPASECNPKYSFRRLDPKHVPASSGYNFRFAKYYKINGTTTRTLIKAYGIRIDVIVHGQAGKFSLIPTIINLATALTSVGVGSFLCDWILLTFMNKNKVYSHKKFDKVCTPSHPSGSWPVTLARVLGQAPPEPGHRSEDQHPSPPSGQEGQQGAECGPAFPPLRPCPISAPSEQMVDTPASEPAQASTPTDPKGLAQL
human P2X3 receptor, sequence (P56373 whole entry): as the sequence (P56373 whole entry) above

## CCc1cnc(-c2cc(OC[C@H]3CN(C)CCO3)cc(C(=O)N[C@H](C)c3ccc(C(F)(F)F)nn3)c2)s1 [Example 419, 3-(5-ethyl-1,3-thiazol-2-yl)-5-{[(2R)-4-methylmorpholin-2-yl]methoxy}-N-{(1R)-1-[6-(trifluoromethyl)pyridazin-3-yl]ethyl}benzamide]
Human P2X3 receptor; [6]
  IC50: 9 nM
Human P2X2/3 receptor
  IC50: 1140 nM
[1]; Caco-2, pH 7.2, Papp B-A divided by Papp A-B
  efflux ratio at 2 h, 2 μM: 1.7
[1]; Caco-2, apical to basolateral, 2 μM, 2 h, 37° C., pH 7.2
  Papp A→B at 2 h, 2 μM: 10.4 ×10⁻⁶ cm/s
[1]; Caco-2, basolateral to apical, 2 μM, 2 h, 37° C., pH 7.2
  Papp B→A at 2 h, 2 μM: 17.5 ×10⁻⁶ cm/s
[2]
  Human liver microsome Fmax: 74%
Rat hepatocytes
  Rat hepatocyte Fmax: 51%

## Cc1cnc(-c2cc(OC(C)C(C)O)cc(C(=O)N[C@H](C)c3ccc(C(F)(F)F)nn3)c2)s1 (single isomer, unassigned) [Example 183]
[2]
  Human liver microsome Fmax: 74%
Rat hepatocytes
  Rat hepatocyte Fmax: 43%

## Cc1cnc(-c2cc(OC[C@H]3CN(C)CCO3)cc(C(=O)N[C@H](C)c3cnc(C(F)(F)F)nc3)c2)s1 [Example 348, 3-{[(2R)-4-methylmorpholin-2-yl]methoxy}-5-(5-methyl-1,3-thiazol-2-yl)-N-{(1R)-1-[2-(trifluoromethyl)pyrimidin-5-yl]ethyl}benzamide]
Human P2X3 receptor; [6]
  IC50: 7 nM
Human P2X3 receptor; [7]
  IC50: 7 nM
Human P2X2/3 receptor
  IC50: 760 nM
[3]; 0.3 mg/kg p.o.
  Paw withdrawal threshold 6 hour-post drug: 599 ± 47 gf (*)
[3]; 1 mg/kg p.o.
  Paw withdrawal threshold 6 hour-post drug: 601 ± 28 gf (**)
[3]; 3 mg/kg p.o.
  Paw withdrawal threshold 6 hour-post drug: 633 ± 59 gf (*)

## Cc1cnc(-c2cc(OC3COC3)cc(C(=O)N[C@H](C)c3cnc(C(F)(F)F)nc3)c2)s1 [Example 48, 3-(5-Methyl-1,3-thiazol-2-yl)-5-(oxetan-3-yloxy)-N-{(1R)-1-[2-(trifluoromethyl)pyrimidin-5-yl]ethyl}benzamide]
Human P2X3 receptor; [6]
  IC50: 14 nM
Human P2X3 receptor; [7]
  IC50: 14 nM
Human P2X2/3 receptor
  IC50: 451 nM
[3]; 3 mg/kg p.o.
  Paw withdrawal threshold 6 hour-post drug: 817 ± 69 gf (****)

## Cc1cnc(-c2cc(OC(C)C(C)O)cc(C(=O)N[C@H](C)c3cnc(C(F)(F)F)nc3)c2)s1 (single isomer, unassigned) [Example 339]
[2]
  Human liver microsome Fmax: 94%
Rat hepatocytes
  Rat hepatocyte Fmax: 52%

## COc1cc(C(C)C)c(Oc2cnc(N)nc2N)cc1S(N)(=O)=O [AF-219]
[4]
  effect on taste in treated subjects: leads to taste disturbances

## Cc1cnc(-c2cc(O[C@H]3CCOC3)cc(C(=O)N[C@H](C)c3cnc(C(F)(F)F)nc3)c2)s1 [Example 26, 3-(5-Methyl-1,3-thiazol-2-yl)-5-[(3S)-tetrahydrofuran-3-yloxy]-N-{(1R)-1-[2-(trifluoromethyl)pyrimidin-5-yl]ethyl}benzamide]
[2]
  Human liver microsome Fmax: 67%
Rat hepatocytes
  Rat hepatocyte Fmax: 56%
[5]
  Test compound turnover after 4 h: 12%

## Cc1cnc(-c2cc(OC(C)C(C)O)cc(C(=O)N[C@H](C)c3cnc(C(F)(F)F)nc3)c2)s1 (single isomer, unassigned) [Example 340]
[2]
  Human liver microsome Fmax: 90%
Rat hepatocytes
  Rat hepatocyte Fmax: 64%

## CC(O)C(C)Oc1cc(C(=O)N[C@H](C)c2cnc(C(F)(F)F)nc2)cc(-c2ncc(Cl)s2)c1 (single isomer, unassigned) [Example 185]
[3]; 3 mg/kg p.o.
  Paw withdrawal threshold 6 hour-post drug: 630 ± 81 (*) gf
